Measured values from patent US20190070170A1, “METHOD OF S[…]-1” (Macau University of Science and Technology, priority 2017, published 2019).

How the values were obtained:
[1] = test system: NF-κB; assay: EMSA for NF-κB DNA binding activity in LPS-stimulated rat peritoneal macrophages; assay type: cell-based; conditions: LPS-induced, nuclear extract
Method: Nuclear extract proteins (10 μg) for the assay of the DNA binding activity of NF-κB were tested with a biotin-labeled oligonucleotide bio-NF-κB probe according to manufacturer's instructions of EMSA kit (Viagene Biotech).

[2] = test system: COX-2; assay: COX-2 protein expression in IL-1β-stimulated A549 cells (western blotting); assay type: cell-based; conditions: IL-1β with SIN or DEX for 48 h
Method: (§1) RAW264.7 and A549 cell lines were obtained from American Type Culture Collection (ATCC, Manassas, Va., USA) and maintained in DMEM (RAW264.7) or 1640 (A549) medium containing 10% FBS (Gibco-BRL, Grand Island, N.Y., USA) and antibiotics at 37° C. in a humidified atmosphere containing 5% CO2. RAW264.7 cells were plated in 6-well plates at a density of 4×10^5 cells and incubated for 24 h, then the cells were pretreated with different concentrations of SIN for 1 h before stimulating with LPS (100 ng/ml). A549 cells were seeded in 6-well plates at a density of 1×10^5 cells and incubated for 24 h, followed by pretreatment with SIN. A549 cells were then stimulated by IL-1β (1 ng/ml).
Whole-cell and nuclear proteins were obtained using RIPA lysis buffer (CST, Boston, Mass., USA) and Nuclear and Cytoplasmic Extraction Reagents kit from Thermo Scientific (Asheville, N.C., USA), respectively. For immunoblotting, proteins from whole-cell, cytoplasm, nuclear, and microsomal fractions were separated on SDS-PAGE, then transferred onto a nitrocellulose membrane from GE Healthcare Life Sciences (Buckinghamshire, UK), and incubated with 5% skimmed milk at room temperature for 1 h. […] The levels of protein expression were measured using Odyssey v3.0 software from Li-COR (Lincoln, Nebr., USA).

[3] = test system: TNF-α; assay: TNF-α level in LPS-stimulated RAW264.7 cells (ELISA); assay type: cell-based, mouse; conditions: pretreatment 1 h, LPS 100 ng/ml 18 h
Method: as §1
RAW264.7 cells and rat peritoneal macrophages were seeded in a 96-well plate at density of 1.4×10^4 and 1.5×10^5 cells, respectively. Various concentration of SIN was added to the cells for 1 hour before LPS stimulation. After stimulation with LPS for 18 h (RAW264.7 cells) or 24 h (rat peritoneal macrophages), MTT solution was added to each well and incubated for another 4 hours. 100 μl 10% SDS-HCl solution was added to each well for overnight to dissolve the formazan dye. The optical density was measured at 570 nm against a reference wavelength of 650 nm using a microplate UV/VIS spectrophotometer (Tecan, Mannedorf, Switzerland). […]

[4] = test system: COX-2; assay: COX-2 protein expression in hind paws of CIA DBA/1 mice; assay type: in vivo; conditions: SIN 100 mg/kg i.p.
Method: Female DBA/1 mice (8-9 weeks old) were purchased from Shanghai SiLaike (SLAC) Laboratory Animal Company (Shanghai, China) and fed with a chow diet and water at room temperature. Equal volume of complete Freuend's adjuvant (CFA) and Bovine Type II Collagen (CII) were mixed and emulsified using a homogenizer (13,000 rpm) on ice. On day 0, DBA/1 mice were immunized by injecting 50 μl of CII in CFA in the tail, approximately 2 cm from the base of the tail. […] The incidence of joint swelling in each group was recorded every two days since drug treatment. […]
Frozen paws were pulverized in liquid nitrogen using a stainless steel mortar and pestle, then re-suspended in 8 volumes of ice-cold PBS from Invitrogen (San Diego, Calif., USA) with 2.6 mM DTT from Promega (Madison, Wis., USA) and 2×Complete Protease Inhibitor mixture from Roche (Mannheim, Germany), and homogenized on ice bath using a tissue homogenizer from T25 digital, IKA (Stanfen, Germany) at 10,000 rpm/min for 5 min. […] The protein concentrations were measured using a Bio-Rad protein assay kit (Hercules, Calif., USA). […]
Whole-cell and nuclear proteins were obtained using RIPA lysis buffer (CST, Boston, Mass., USA) and Nuclear and Cytoplasmic Extraction Reagents kit from Thermo Scientific (Asheville, N.C., USA), respectively. […] The levels of protein expression were measured using Odyssey v3.0 software from Li-COR (Lincoln, Nebr., USA).

[5] = test system: PGE2; assay: RNA interference experiment of mPGES-1: PGE2 production in mPGES-1 knockdown RAW264.7 cells; assay type: cell-based, mouse; conditions: mPGES-1 siRNA RAW264.7 cells; SIN 640 μM or DEX 0.5 μM 1 h, LPS 10 ng/mL 18 h
Method: RAW264.7 cells were transfected with ON-TARGETplus SMARTpool mPGES-1 siRNA (mPGES-1 siRNA) or nonspecific siRNA (NS siRNA) using HiPerFect transfection reagent according to the manufacturer's recommended protocols. After 24 h of transfection, the cells were treated with or without SIN (640 μM) or DEX (0.5 μM) in complete growth medium. After 1 h, all groups were stimulated with LPS (10 ng/mL) for 18 h except the control group. Then the cell culture media were collected and stored at −20° C. for later analysis of the levels of PGE2. Cells were harvested for qRT-PCR, the mouse primers used are listed as follows: […]

## COC1=C[C@@H]2[C@@H]3Cc4ccc(OC)c(O)c4[C@]2(CCN3C)CC1=O [SIN, sinomenine]
[1]
  NF-κB DNA binding activity (EMSA): capable of suppressing
[2]
  COX-2 protein expression: did not suppress
[3]
  TNF-α production: significantly inhibited
[4]
  COX-2 expression in paw tissues: did not produce observable changes
[5]
  change of the compound's inhibitory effect on PGE2 production by mPGES-1 knockdown: not affected
